Source: PubChem BioAssay (NCI)
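Each compound was tested at five concentrations against cells in 96-well plates for 48 hours. GI50 marks 50% less growth. TGI denotes the concentration required for complete inhibition of growth.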

Columns and labels:
Assay in all cases: NCI-60 cell line screen, 48 h
NCI-H23 lung = tested on: NCI-H23 lung
SK-MEL-5 melanoma = tested on: SK-MEL-5 melanoma
HS 578T breast = tested on: HS 578T breast
SN12C renal = tested on: SN12C renal
K-562 leukemia = tested on: K-562 leukemia
IGROV1 ovarian = tested on: IGROV1 ovarian
OVCAR-4 ovarian = tested on: OVCAR-4 ovarian
U251 CNS = tested on: U251 CNS
DU-145 prostate = tested on: DU-145 prostate
SF-539 CNS = tested on: SF-539 CNS

## COc1ccc2c(c1)N(CCO)C1=C(C(=O)OC1)C2c1ccc(OC)c(OC)c1 (centres undefined)
NCI-H23 lung
  GI50: 3.39 µM
  TGI: > 100 µM
SK-MEL-5 melanoma
  GI50: 2.63 µM
  TGI: 15.5 µM
HS 578T breast
  GI50: 2.88 µM
  TGI: 9.82 µM
SN12C renal
  GI50: 5.8 µM
  TGI: > 100 µM
K-562 leukemia
  GI50: 1.26 µM
  TGI: > 100 µM
IGROV1 ovarian
  GI50: 3.46 µM
  TGI: > 100 µM
OVCAR-4 ovarian
  GI50: 4.77 µM
  TGI: > 100 µM
U251 CNS
  GI50: 2.97 µM
  TGI: > 100 µM
DU-145 prostate
  GI50: 3.01 µM
  TGI: 9.38 µM

## Cc1c(O)c(Br)c(C)c(O)c1Br (tested in a mixture with another compound)
NCI-H23 lung
  TGI: 4.62 µM
SK-MEL-5 melanoma
  TGI: 11.4 µM
SF-539 CNS
  TGI: 10 µM
HS 578T breast
  TGI: 19.9 µM
K-562 leukemia
  TGI: 11.6 µM
IGROV1 ovarian
  TGI: 20.5 µM
OVCAR-4 ovarian
  TGI: 3.04 µM
U251 CNS
  TGI: 24.4 µM
DU-145 prostate
  TGI: 5.15 µM

## CN1CCc2cc3c4cc2C1Cc1ccc(cc1)Oc1cc(ccc1O)CC1c2c(cc(O)c(c2O4)O3)CCN1C (centres undefined)
NCI-H23 lung
  TGI: 13.5 µM
SK-MEL-5 melanoma
  TGI: 16.7 µM
SF-539 CNS
  TGI: 3.21 µM
SN12C renal
  TGI: 14.8 µM
K-562 leukemia
  TGI: 4.54 µM
IGROV1 ovarian
  TGI: 14.3 µM
OVCAR-4 ovarian
  TGI: 4.37 µM
U251 CNS
  TGI: 3.16 µM

## CC1CC(c2ccc(Cl)c(Cl)c2)=Nc2ccccc2S1 (centres undefined)
NCI-H23 lung
  TGI: > 100 µM
SK-MEL-5 melanoma
  TGI: > 100 µM
SF-539 CNS
  TGI: > 100 µM
SN12C renal
  TGI: > 100 µM
K-562 leukemia
  TGI: > 100 µM
IGROV1 ovarian
  TGI: > 100 µM
OVCAR-4 ovarian
  TGI: > 100 µM
U251 CNS
  TGI: > 100 µM

## NCC1(N2CCOCC2)C2CCCC21CNc1ccccc1 (centres undefined)
NCI-H23 lung
  TGI: > 100 µM
SK-MEL-5 melanoma
  TGI: > 100 µM
SF-539 CNS
  TGI: > 100 µM
SN12C renal
  TGI: > 100 µM
K-562 leukemia
  TGI: > 100 µM
IGROV1 ovarian
  TGI: > 100 µM
OVCAR-4 ovarian
  TGI: > 100 µM
U251 CNS
  TGI: > 100 µM

## O=C1CC[C@@H](NC(=O)Cc2ccccc2)C(=O)N1
NCI-H23 lung
  TGI: > 100 µM
SK-MEL-5 melanoma
  TGI: > 100 µM
SF-539 CNS
  TGI: > 100 µM
SN12C renal
  TGI: > 100 µM
K-562 leukemia
  TGI: > 100 µM
IGROV1 ovarian
  TGI: > 100 µM
OVCAR-4 ovarian
  TGI: > 100 µM
U251 CNS
  TGI: > 100 µM

## O=C(O)c1cn(C2CC2)c2cc(N3CCN(Cc4ccc5ccccc5c4O)CC3)c(F)cc2c1=O
NCI-H23 lung
  GI50: 3.51 µM
  TGI: > 100 µM
SK-MEL-5 melanoma
  GI50: 3.78 µM
  TGI: > 100 µM
HS 578T breast
  GI50: 2.3 µM
  TGI: 6.9 µM
SN12C renal
  GI50: 3.44 µM
  TGI: > 100 µM
IGROV1 ovarian
  GI50: 4.91 µM
  TGI: > 100 µM
U251 CNS
  GI50: 4.87 µM
  TGI: > 100 µM

## Cc1ccc(NC(=O)C(=O)CC(=O)c2ccccc2)cc1C
NCI-H23 lung
  TGI: > 100 µM
SK-MEL-5 melanoma
  TGI: > 100 µM
SF-539 CNS
  TGI: > 100 µM
SN12C renal
  TGI: > 100 µM
IGROV1 ovarian
  TGI: > 100 µM
OVCAR-4 ovarian
  TGI: > 100 µM
U251 CNS
  TGI: > 100 µM

## N=C1C(c2nc3ccccc3s2)=C(O)CN1c1cc(Cl)cc(Cl)c1
NCI-H23 lung
  GI50: > 100 µM
  TGI: > 100 µM
SK-MEL-5 melanoma
  GI50: > 100 µM
  TGI: > 100 µM
SF-539 CNS
  GI50: 34.3 µM
  TGI: > 100 µM
HS 578T breast
  GI50: 16.1 µM
  TGI: 64.8 µM
SN12C renal
  GI50: > 100 µM
  TGI: > 100 µM
K-562 leukemia
  GI50: > 100 µM
  TGI: > 100 µM
OVCAR-4 ovarian
  GI50: 37.4 µM
  TGI: > 100 µM
U251 CNS
  GI50: 32.3 µM
  TGI: > 100 µM
DU-145 prostate
  GI50: > 100 µM
  TGI: > 100 µM

## c1ccc2c(c1)N=C(c1ccc3ccccc3c1)CC(c1cccc3ccccc13)S2 (centres undefined)
NCI-H23 lung
  TGI: > 100 µM
SK-MEL-5 melanoma
  TGI: > 100 µM
SF-539 CNS
  TGI: > 100 µM
SN12C renal
  TGI: > 100 µM
K-562 leukemia
  TGI: 54 µM
IGROV1 ovarian
  TGI: > 100 µM
OVCAR-4 ovarian
  TGI: > 100 µM
U251 CNS
  TGI: > 100 µM
